This note sets out measurements from patent US20250230151A1, “COMPOUNDS FOR CANCERS DRIVEN BY BRAF MUTATION” (THE BOARD OF TRUSTEES OF THE UNIVERSITY OF ILLINOIS, priority 2021, published 2025).

Molecules are shown by their SMILES. Where two headings read alike, the source gives them in different places.

The test system of one data set is AM-38 cells. Kind of data set: 72-hour cell viability assay (Alamar Blue), AM-38. The class given is cell-based. The following applies: glioma. On the procedure:
(§1) Cell Culture and reagents. All cell lines were grown in a 37° C., 5% CO2, humidified environment, in media containing 1% penicillin/streptomycin. Cell culture conditions are as follows: MDCK cells transfected with MDR1 (or ABCB1) were obtained from the Netherlands Cancer Institute (Amsterdam, The Netherlands) and maintained in DMEM with 10% fetal bovine serum (FBS, Gemini). Traditional cell lines A375, CHL-1, B16F10, and U118MG were grown in DMEM with 10% FBS, SK-MEL-28, U87 and T98G in EMEM with 10% FBS, AM-38 in EMEM with 20% HI-FBS (Gibco), HT29 in McCoy's 5A with 10% FBS, HCT116 in RPMI with 10% FBS. Compounds were dissolved in DMSO (1% final concentration, Sigma-Aldrich) for cell culture studies.
(§2) Cell viability assays. Cells were harvested, seeded in a 96-well plate and allowed to adhere overnight. Compound was added to each well in DMSO (1% final concentration). Cells were incubated for 72 hours before viability was assessed by the Alamar Blue Assay. Raptinal ([…]) was used as a dead control.
Background: Resazurin is reduced to fluorescent resorufin, in cell work by metabolically active cells.

In a further data set the test system is SK-MEL-28 cells. The data set is described as follows: 72-hour cell viability assay (Alamar Blue), SK-MEL-28. Type of data set: cell-based. To be noted: melanoma. On the procedure: as §1, §2
The next data set concerns T98G cells. Kind of data set: 72-hour cell viability assay (Alamar Blue), T98G. The class given is cell-based. To be noted: WT BRAF. On the procedure: as §1, §2
The next data set concerns U118MG cells. The data set is described as follows: 72-hour cell viability assay (Alamar Blue), U118MG. Type of data set: cell-based. The following applies: WT BRAF. The protocol:
as §1, §2

The target in a further data set is T1, P-gp (Mus musculus, UniProt P21447).
T1 construct: tissue Charles River (CD-1 mice); host or cells: living CD-1 mice; blood-brain barrier / brain
Kind of data set: P-gp in vivo assay (elacridar pretreatment). To be noted: for enhancement of BBB penetrance by P-gp inhibition: elacridar 2.5 mg/kg, compound 25 mg/kg IV. The protocol: Actionability in animals. […] At each time point, blood and brain were harvested, and compound concentrations in each compartment were quantified.
In this experiment, brain-to-blood ratios of P-gp substrates […] with the P-gp inhibitor compared to vehicle, while those of non-substrates will remain the same.
Blood-brain barrier penetrance P-gp in vivo assays. […] CD-1 mice were purchased from Charles River and acclimated for 4-7 days before use. Mice were administered elacridar or its vehicle at 2.5 mg/kg via lateral tail vein injection. Thirty-minutes post injection, mice were then treated with compounds at 25 mg/kg intravenously now in the other tail vein. At each time point, mice were sacrificed and blood was collected by lacerating the right auricle with iris scissors. An 18-gauge angiocatheter was inserted through the left ventricle, and all residual circulatory volume was removed by perfusing 0.9% saline solution via an analog peristaltic pump. Brains were harvested from the cranial vault and flash frozen. Blood samples were centrifuged at 13,000 ref for 10 minutes and the supernatant serum was stored at −80° C. until analysis. Brain samples were homogenized in ice-cold methanol and centrifuged first at 2000 ref for three minutes and then 13,000 ref for ten minutes and supernatant and tissue debris were separated and stored at −80° C. The resultant supernatant and serum were analyzed by LC-MS/MS to determine compound concentrations. […] All compounds were administered at 5 mL/kg.

In data set [1] the test system is MAPK signaling (phospho-MEK1/2, phospho-ERK1/2) in A375 cells. Kind of data set: Immunoblotting of MEK1/2 and ERK1/2 phosphorylation, A375. Type of data set: cell-based, human. The following applies: for dose-response of phospho-ERK1/2 inhibition: A375, 0.01-10 μM, 1 and 24 h; for inhibition of MAPK signaling (MEK1/2 and ERK1/2 phosphorylation): A375, 1 h of treatment; for inhibition of ERK1/2 phosphorylation after 24 h: A375, highest concentrations (10 μM). On the procedure: Immunoblotting. Cells were lysed using RIPA buffer containing phosphatase (BioVision) and protease inhibitor cocktail (Calbiochem). Protein concentration was determined using the BCA assay (Pierce). Cell lysates containing […] of protein were loaded into each lane of 4% to 20% gradient gels (Bio-Rad) for SDS-PAGE. Proteins were transferred onto PDVF membrane for Western blot analysis. Blots were blocked with BSA for one hour followed by incubation with primary antibody overnight (dilution according to manufacturer's protocols), and then secondary antibody was incubated for one hour. Blots were then imaged with a ChemiDoc Touch (Bio-Rad) after incubation with SuperSignal West Pico Solution (ThermoFischer) following manufacturer's protocols. All antibodies were purchased from Cell Signaling Technology: p-ERK (9101S), ERK (4695S), p-MEK (9121S), MEK (8727S), vinculin (13901S) Rabbit IgG-HRP (7074), […] (5125).
In general terms: In western blotting, separated proteins are transferred to a membrane and probed.

[2] abbreviates: Homo sapiens, AM-38, V600E BRAF.
The mark [3] stands for this setting: Homo sapiens, SK-MEL-28, V600E BRAF.
Setting [4] is: Homo sapiens, T98G, glioma, read-out: T98G (WT) IC50.
Where [5] appears, read: Homo sapiens, T98G, read-out: T98G IC50.
Setting [6] is: Homo sapiens, U-118-MG, glioma, read-out: U118MG (WT) IC50.
Where [7] appears, read: Homo sapiens, U-118-MG, read-out: U118MG IC50.

T1 sequence (P21447 whole entry): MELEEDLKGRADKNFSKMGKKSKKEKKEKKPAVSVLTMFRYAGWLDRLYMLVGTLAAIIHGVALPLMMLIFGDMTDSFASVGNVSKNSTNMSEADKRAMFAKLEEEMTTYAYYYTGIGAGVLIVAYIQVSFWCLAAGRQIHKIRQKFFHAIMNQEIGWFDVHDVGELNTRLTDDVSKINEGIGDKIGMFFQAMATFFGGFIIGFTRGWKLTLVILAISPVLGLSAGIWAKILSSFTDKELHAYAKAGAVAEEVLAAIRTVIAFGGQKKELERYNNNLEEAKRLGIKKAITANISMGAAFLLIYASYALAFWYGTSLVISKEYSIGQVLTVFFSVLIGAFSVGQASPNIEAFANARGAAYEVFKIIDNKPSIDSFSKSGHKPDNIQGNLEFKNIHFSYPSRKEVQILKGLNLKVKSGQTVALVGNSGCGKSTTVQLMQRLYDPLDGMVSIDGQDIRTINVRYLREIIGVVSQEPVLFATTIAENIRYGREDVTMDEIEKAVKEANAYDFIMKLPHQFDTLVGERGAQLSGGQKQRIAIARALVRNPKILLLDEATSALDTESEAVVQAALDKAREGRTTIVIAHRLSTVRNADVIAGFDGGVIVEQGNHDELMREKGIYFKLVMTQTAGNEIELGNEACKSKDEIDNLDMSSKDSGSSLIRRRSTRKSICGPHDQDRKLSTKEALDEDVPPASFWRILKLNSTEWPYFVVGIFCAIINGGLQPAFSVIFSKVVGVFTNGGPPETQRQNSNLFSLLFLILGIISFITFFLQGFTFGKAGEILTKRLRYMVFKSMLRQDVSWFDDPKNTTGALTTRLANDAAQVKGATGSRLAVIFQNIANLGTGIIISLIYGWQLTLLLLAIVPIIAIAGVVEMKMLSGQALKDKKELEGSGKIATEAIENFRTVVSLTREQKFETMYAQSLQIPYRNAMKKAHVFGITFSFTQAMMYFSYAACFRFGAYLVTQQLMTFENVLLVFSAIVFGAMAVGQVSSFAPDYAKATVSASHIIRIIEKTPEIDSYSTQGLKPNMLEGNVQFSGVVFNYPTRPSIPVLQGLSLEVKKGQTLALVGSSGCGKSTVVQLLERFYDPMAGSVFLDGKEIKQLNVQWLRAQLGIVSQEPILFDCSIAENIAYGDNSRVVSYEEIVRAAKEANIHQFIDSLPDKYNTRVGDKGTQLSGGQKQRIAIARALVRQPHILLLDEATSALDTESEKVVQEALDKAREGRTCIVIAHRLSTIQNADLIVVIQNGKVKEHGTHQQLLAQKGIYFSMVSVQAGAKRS

With `CCCS(=O)(=O)Nc1cc(Cl)cc(-c2nc(C(C)(C)C)sc2-c2ccnc(N)n2)c1F` [6-261, N-(3-(5-(2-aminopyrimidin-4-yl)-2-(tert-butyl)thiazol-4-yl)-5-chloro-2-fluorophenyl)propane-1-sulfonamide], the IC50 is 8.5 ± 1.2 nM in the data set with AM-38 cells (setting [2]); 2.35 ± 0.13 nM in the data set with SK-MEL-28 cells (setting [3]); above 1000 nM in the data set on T98G cells (setting [4]); above 1000 nM in the data set with T98G cells (setting [5]); above 1000 nM in the data set on U118MG cells (setting [6]); above 1000 nM with U118MG cells (setting [7]). Besides, the “effect of P-gp inhibitor (elacridar) co-treatment on brain exposure” value on P-gp (result in words) is given as “did display potentiation”. Also, the “dose-response of phospho-ERK1/2 inhibition” value in data set [1] is “clear dose-dependent inhibition”. Moreover, in data set [1], the “inhibition of MAPK signaling (MEK1/2 and ERK1/2 phosphorylation)” value was “strongly inhibited”. In addition, the “inhibition of ERK1/2 phosphorylation after 24 h” value (shortened to “inhibition … after 24 h”) in data set [1] is recorded as “sustained”.

Take `CCCS(=O)(=O)Nc1cc(Cl)cc(-c2nc(C(C)(C)C)sc2-c2ccnc(NCCCCC(=O)O)n2)c1F` [6-263, 5-((4-(2-(tert-butyl)-4-(5-chloro-2-fluoro-3-(propylsulfonamido)phenyl)thiazol-5-yl)pyrimidin-2-yl)amino)pentanoic acid]: the IC50 with AM-38 cells (setting [2]) was 93.2 ± 14.1 nM; in the data set on SK-MEL-28 cells (setting [3]), 22.5 ± 1.2 nM; in the data set on T98G cells (setting [4]), above 10000 nM; in the data set with T98G cells (setting [5]), above 10000 nM; in the data set on U118MG cells (setting [6]), above 10000 nM; in the data set with U118MG cells (setting [7]), above 10000 nM. For the same compound, the “enhancement of BBB penetrance by P-gp inhibition” value amounted to 1.5 fold on P-gp (15 min) and 2.5 fold on P-gp (60 min). In data set [1], the “dose-response of phospho-ERK1/2 inhibition” value is “clear dose-dependent inhibition”. Further, the “inhibition of MAPK signaling (MEK1/2 and ERK1/2 phosphorylation)” value in data set [1] is reported as “strongly inhibited”. In data set [1], the “inhibition … after 24 h” value is recorded as “sustained”.

With `CC(C)(C)c1nc(-c2cccc(NS(=O)(=O)c3c(F)cccc3F)c2F)c(-c2ccnc(N)n2)s1` [Dabrafenib, reference compound], the IC50 is 6.84 ± 0.84 nM in the data set on AM-38 cells (V600E BRAF), 4.76 ± 0.42 nM with SK-MEL-28 cells (V600E BRAF), above 1000 nM with T98G cells (read-out: T98G IC50) and above 1000 nM in the data set on U118MG cells (read-out: U118MG IC50). Besides, the results for the “enhancement of BBB penetrance by P-gp inhibition” value on P-gp (15 min) and on P-gp (60 min) were 4.3 fold and 5.8 fold, respectively. Moreover, the “inhibition … after 24 h” value in data set [1] is “diminished inhibition”.

The term IC50 denotes the concentration at which inhibition is half-maximal.
